Measurements published in PubChem BioAssay AID2060893 (Molecular Pharmacology Branch, DTP, NCI, 2025).

Test system: K86415-001-R-J1-PDC complex spheroids, viability
Assay: Anticancer human tumor K86415-001-R-J1-PDC patient-derived lung adenocarcinoma cell line growth inhibition [RAS]
Conditions: for IC50: curve of first compound; for viability, T/C: stronger effect = lower value
Outline: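 Multi-cell-type spheroids: tumor cells plus HUVEC endothelial cells and mesenchymal stem cells. RAS-pathway inhibitors were combined with targeted agents, each dosed in half-log steps down from clinical Cmax, or from 10 microM when Cmax was unknown.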

[1] = second compound 0.0316 µM, first compound 0.000949 µM
[2] = second compound 0.0316 µM, first compound 0.003 µM
[3] = second compound 0.0316 µM, first compound 0.00949 µM
[4] = second compound 0.0316 µM, first compound 0.03 µM
[5] = second compound 0.0316 µM, first compound 0.0949 µM
[6] = second compound 0.0316 µM, first compound 0.3 µM
[7] = second compound 0.1 µM, first compound 0.000949 µM
[8] = second compound 0.1 µM, first compound 0.003 µM
[9] = second compound 0.1 µM, first compound 0.00949 µM
[10] = second compound 0.1 µM, first compound 0.03 µM
[11] = second compound 0.1 µM, first compound 0.0949 µM
[12] = second compound 0.1 µM, first compound 0.3 µM
[13] = second compound 0.316 µM, first compound 0.000949 µM
[14] = second compound 0.316 µM, first compound 0.003 µM
[15] = second compound 0.316 µM, first compound 0.00949 µM
[16] = second compound 0.316 µM, first compound 0.03 µM
[17] = second compound 0.316 µM, first compound 0.0949 µM
[18] = second compound 0.316 µM, first compound 0.3 µM
[19] = second compound 1 µM, first compound 0.000949 µM
[20] = second compound 1 µM, first compound 0.003 µM
[21] = second compound 1 µM, first compound 0.00949 µM
[22] = second compound 1 µM, first compound 0.03 µM
[23] = second compound 1 µM, first compound 0.0949 µM
[24] = second compound 1 µM, first compound 0.3 µM
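Note: spheroids exposed to agents for seven days before readout.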

With `NC1c2ccccc2OC12CCN(c1cnc3c(N4CCCc5ncccc54)n[nH]c3n1)CC2` (stereo unspecified) + C#Cc1c(F)ccc2cc(O)cc(-c3ncc4c(N5CC6CCC(C5)N6)nc(OCC56CCCN5CC(F)C6)nc4c3F)c12 the IC50 (second compound 0.0316 µM) was under 31.6 nM, the IC50 (second compound 0.1 µM) was under 31.6 nM and the IC50 (second compound 0.316 µM) was under 31.6 nM. For the same molecule, the IC50 (second compound 1 µM) was under 31.6 nM, the IC50 (second compound 3.16 µM) was under 31.6 nM and the IC50 (second compound 10 µM) was under 31.6 nM. It also gave a viability, T/C (second compound 0.0316 µM, first compound 0.0316 µM) of 34.9%, a viability, T/C (second compound 0.0316 µM, first compound 0.1 µM) of 25.9% and a viability, T/C (second compound 0.0316 µM, first compound 0.316 µM) of 18.1%. It also gave a viability, T/C (second compound 0.0316 µM, first compound 1 µM) of 14.8%, a viability, T/C (second compound 0.0316 µM, first compound 3.16 µM) of 17.4% and a viability, T/C (second compound 0.0316 µM, first compound 10 µM) of 15.8%. For the same molecule, the viability, T/C (second compound 0.1 µM, first compound 0.0316 µM) was 36.4%, the viability, T/C (second compound 0.1 µM, first compound 0.1 µM) was 23.2% and the viability, T/C (second compound 0.1 µM, first compound 0.316 µM) was 16.8%. For the same molecule, the viability, T/C (second compound 0.1 µM, first compound 1 µM) was 13.9%, the viability, T/C (second compound 0.1 µM, first compound 3.16 µM) was 12.5% and the viability, T/C (second compound 0.1 µM, first compound 10 µM) was 12.4%. The viability, T/C (second compound 0.316 µM, first compound 0.0316 µM) was 28.2%, the viability, T/C (second compound 0.316 µM, first compound 0.1 µM) was 18.1% and the viability, T/C (second compound 0.316 µM, first compound 0.316 µM) was 11.8%. It also gave a viability, T/C (second compound 0.316 µM, first compound 1 µM) of 8.85%, a viability, T/C (second compound 0.316 µM, first compound 3.16 µM) of 10.4% and a viability, T/C (second compound 0.316 µM, first compound 10 µM) of 8.35%. The viability, T/C (second compound 1 µM, first compound 0.0316 µM) was 17.7%, the viability, T/C (second compound 1 µM, first compound 0.1 µM) was 11.2% and the viability, T/C (second compound 1 µM, first compound 0.316 µM) was 8.78%. The viability, T/C (second compound 1 µM, first compound 1 µM) was 7.65%, the viability, T/C (second compound 1 µM, first compound 3.16 µM) was 5.83% and the viability, T/C (second compound 1 µM, first compound 10 µM) was 5.6%. The viability, T/C (second compound 3.16 µM, first compound 0.0316 µM) was 9.96%, the viability, T/C (second compound 3.16 µM, first compound 0.1 µM) was 7.32% and the viability, T/C (second compound 3.16 µM, first compound 0.316 µM) was 5.29%. It also gave a viability, T/C (second compound 3.16 µM, first compound 1 µM) of 4.36%, a viability, T/C (second compound 3.16 µM, first compound 3.16 µM) of 4.13% and a viability, T/C (second compound 3.16 µM, first compound 10 µM) of 5.5%. It also gave a viability, T/C (second compound 10 µM, first compound 0.0316 µM) of 7.06%, a viability, T/C (second compound 10 µM, first compound 0.1 µM) of 4.42% and a viability, T/C (second compound 10 µM, first compound 0.316 µM) of 3.79%. It also gave a viability, T/C (second compound 10 µM, first compound 1 µM) of 3.47%, a viability, T/C (second compound 10 µM, first compound 3.16 µM) of 4% and a viability, T/C (second compound 10 µM, first compound 10 µM) of 4.4%.

`CC1(C)CCC(Nc2ncc(C(F)(F)F)c(-c3c[nH]c4c(P(C)(C)=O)c(C#N)ccc34)n2)CN1` (stereo unspecified) + C=CC(=O)N1CCN(c2nc(OCC3CCCN3C)nc3c(F)c(-c4nc(N)cc(C)c4C(F)(F)F)c(Cl)cc23)C(C)C1 showed an IC50 (second compound 0.00316 µM) of under 0.949 nM, an IC50 (second compound 0.01 µM) of under 0.949 nM and an IC50 (second compound 0.0316 µM) of under 0.949 nM. It also gave an IC50 (second compound 0.1 µM) of under 0.949 nM, an IC50 (second compound 0.316 µM) of under 0.949 nM and an IC50 (second compound 1 µM) of under 0.949 nM. It also gave a viability, T/C (second compound 0.00316 µM, first compound 0.000949 µM) of 18.3%, a viability, T/C (second compound 0.00316 µM, first compound 0.003 µM) of 22.2% and a viability, T/C (second compound 0.00316 µM, first compound 0.00949 µM) of 18.7%. It also gave a viability, T/C (second compound 0.00316 µM, first compound 0.03 µM) of 20.3%, a viability, T/C (second compound 0.00316 µM, first compound 0.0949 µM) of 22.7% and a viability, T/C (second compound 0.00316 µM, first compound 0.3 µM) of 22.8%. For the same molecule, the viability, T/C (second compound 0.01 µM, first compound 0.000949 µM) was 15.2%, the viability, T/C (second compound 0.01 µM, first compound 0.003 µM) was 12.7% and the viability, T/C (second compound 0.01 µM, first compound 0.00949 µM) was 16.9%. It also gave a viability, T/C (second compound 0.01 µM, first compound 0.03 µM) of 13.3%, a viability, T/C (second compound 0.01 µM, first compound 0.0949 µM) of 15.5% and a viability, T/C (second compound 0.01 µM, first compound 0.3 µM) of 20.2%. The viability, T/C [1] was 12.8%, the viability, T/C [2] was 14% and the viability, T/C [3] was 12.7%. For the same molecule, the viability, T/C [4] was 14.5%, the viability, T/C [5] was 15.6% and the viability, T/C [6] was 16.5%. For the same molecule, the viability, T/C [7] was 11.2%, the viability, T/C [8] was 12.5% and the viability, T/C [9] was 12.7%. The viability, T/C [10] was 13.1%, the viability, T/C [11] was 13.9% and the viability, T/C [12] was 14.9%. For the same molecule, the viability, T/C [13] was 9.63%, the viability, T/C [14] was 13.1% and the viability, T/C [15] was 12.1%. The viability, T/C [16] was 12.8%, the viability, T/C [17] was 13.8% and the viability, T/C [18] was 13.4%. For the same molecule, the viability, T/C [19] was 10.9%, the viability, T/C [20] was 11.1% and the viability, T/C [21] was 13.6%. The viability, T/C [22] was 13.8%, the viability, T/C [23] was 15.9% and the viability, T/C [24] was 14.9%.

With `CCc1c2c(nc3ccc(O)cc13)-c1cc3c(c(=O)n1C2)COC(=O)[C@]3(O)CC` + C#Cc1c(F)ccc2cc(O)cc(-c3ncc4c(N5CC6CCC(C5)N6)nc(OCC56CCCN5CC(F)C6)nc4c3F)c12 the IC50 (second compound 0.0316 µM) was 2.54 nM, the IC50 (second compound 0.1 µM) was 2.62 nM and the IC50 (second compound 0.316 µM) was 2.35 nM. For the same molecule, the IC50 (second compound 1 µM) was 1.79 nM, the IC50 (second compound 3.16 µM) was under 0.949 nM and the IC50 (second compound 10 µM) was under 0.949 nM. It also gave a viability, T/C [1] of 93.6%, a viability, T/C [2] of 41.2% and a viability, T/C [3] of 21.4%. The viability, T/C [4] was 17%, the viability, T/C [5] was 10.5% and the viability, T/C [6] was 5.25%. For the same molecule, the viability, T/C [7] was 85%, the viability, T/C [8] was 44.7% and the viability, T/C [9] was 24.1%. For the same molecule, the viability, T/C [10] was 14%, the viability, T/C [11] was 9.47% and the viability, T/C [12] was 5.05%. It also gave a viability, T/C [13] of 80.7%, a viability, T/C [14] of 40.4% and a viability, T/C [15] of 23.9%. For the same molecule, the viability, T/C [16] was 15.6%, the viability, T/C [17] was 11.5% and the viability, T/C [18] was 5.49%. It also gave a viability, T/C [19] of 69.1%, a viability, T/C [20] of 34.6% and a viability, T/C [21] of 17.2%. The viability, T/C [22] was 13.6%, the viability, T/C [23] was 10.5% and the viability, T/C [24] was 6.31%. The viability, T/C (second compound 3.16 µM, first compound 0.000949 µM) was 46%, the viability, T/C (second compound 3.16 µM, first compound 0.003 µM) was 33.3% and the viability, T/C (second compound 3.16 µM, first compound 0.00949 µM) was 22.5%. For the same molecule, the viability, T/C (second compound 3.16 µM, first compound 0.03 µM) was 15.5%, the viability, T/C (second compound 3.16 µM, first compound 0.0949 µM) was 13.9% and the viability, T/C (second compound 3.16 µM, first compound 0.3 µM) was 6.66%. For the same molecule, the viability, T/C (second compound 10 µM, first compound 0.000949 µM) was 17%, the viability, T/C (second compound 10 µM, first compound 0.003 µM) was 12.8% and the viability, T/C (second compound 10 µM, first compound 0.00949 µM) was 16.1%. It also gave a viability, T/C (second compound 10 µM, first compound 0.03 µM) of 18.1%, a viability, T/C (second compound 10 µM, first compound 0.0949 µM) of 14.2% and a viability, T/C (second compound 10 µM, first compound 0.3 µM) of 6.63%.
